# Measured values reported in ChEMBL document CHEMBL6153174, “Design and Synthesis of Novel Deazapurine DNMT 1 Inhibitors with In Vivo Efficacy in DLBCL” (J Med Chem, 2025).
# Molecular target: DNA (cytosine-5)-methyltransferase 3B (Homo sapiens, UniProt Q9UBC3)
# Assay: Inhibition of DNMT3B (unknown origin) at 5 uM preincubated for 15 mins followed by substrate and [3H-SAM] addition and measured after 60 mins by microbeta analysis relative to control
# Details: time 75.0 min
row,Compound,inhibition [%]
1,COc1ccc(-c2cc(NCC3CCN(Cc4ccccc4)CC3)c3cnn(CCCN4CCCC4)c3c2)cc1,1.2
2,CN1CCC(Nc2nc(-c3cn[nH]c3)nc3c2ccn3CCCN2CCCC2)CC1,-6.9
3,CN1CCC(Nc2nc(N3CCN(C)CC3)nc3c2ccn3CCCN2CCCC2)CC1,11
4,CC(C)N1CCC(Nc2nc(N3CCCCC3)nc3c2ccn3CCCN2CCCC2)CC1,11
5,CN1CCC(Nc2nc(N3CCN(C)CC3)nc3c2ccn3CCCN2CCOCC2)CC1,16
6,CN1CCC(Nc2nc(-c3ccc(C(F)(F)F)cc3)nc3c2ccn3CCCN2CCCC2)CC1,1.1
7,CC(C)N1CCC(Nc2nc(-c3ccccc3)nc3c2ncn3CCCN2CCCC2)CC1,0.7
8,CN1CCC(Nc2nc(N3CCOCC3)nc3c2ccn3CCCN2CCCC2)CC1,15
9,CC(C)N1CCC(Nc2nc(N3CCOCC3)nc3c2ccn3CCCN2CCCC2)CC1,-9.7
10,CN1CCC(Nc2nc(N3CCCCC3)nc3c2ccn3CCCN2CCOCC2)CC1,-0.3
11,CN1CCC(Nc2nc(N3CCCCC3)nc3c2ccn3CCCN2CCCC2)CC1,-9.7
12,Cc1ccc(-c2cc(NC3CCN(C(C)C)CC3)c3cnn(CCCN4CCCC4)c3c2)o1,-9.4

# Molecular target: T1, DNA (cytosine-5)-methyltransferase 1 (Homo sapiens, UniProt P26358)
# Assay: Inhibition of DNMT1 (unknown origin) at 5 uM preincubated for 15 mins followed by substrate and [3H-SAM] addition and measured after 60 mins by microbeta analysis relative to control
# Details: time 75.0 min
# T1 sequence (P26358 whole entry): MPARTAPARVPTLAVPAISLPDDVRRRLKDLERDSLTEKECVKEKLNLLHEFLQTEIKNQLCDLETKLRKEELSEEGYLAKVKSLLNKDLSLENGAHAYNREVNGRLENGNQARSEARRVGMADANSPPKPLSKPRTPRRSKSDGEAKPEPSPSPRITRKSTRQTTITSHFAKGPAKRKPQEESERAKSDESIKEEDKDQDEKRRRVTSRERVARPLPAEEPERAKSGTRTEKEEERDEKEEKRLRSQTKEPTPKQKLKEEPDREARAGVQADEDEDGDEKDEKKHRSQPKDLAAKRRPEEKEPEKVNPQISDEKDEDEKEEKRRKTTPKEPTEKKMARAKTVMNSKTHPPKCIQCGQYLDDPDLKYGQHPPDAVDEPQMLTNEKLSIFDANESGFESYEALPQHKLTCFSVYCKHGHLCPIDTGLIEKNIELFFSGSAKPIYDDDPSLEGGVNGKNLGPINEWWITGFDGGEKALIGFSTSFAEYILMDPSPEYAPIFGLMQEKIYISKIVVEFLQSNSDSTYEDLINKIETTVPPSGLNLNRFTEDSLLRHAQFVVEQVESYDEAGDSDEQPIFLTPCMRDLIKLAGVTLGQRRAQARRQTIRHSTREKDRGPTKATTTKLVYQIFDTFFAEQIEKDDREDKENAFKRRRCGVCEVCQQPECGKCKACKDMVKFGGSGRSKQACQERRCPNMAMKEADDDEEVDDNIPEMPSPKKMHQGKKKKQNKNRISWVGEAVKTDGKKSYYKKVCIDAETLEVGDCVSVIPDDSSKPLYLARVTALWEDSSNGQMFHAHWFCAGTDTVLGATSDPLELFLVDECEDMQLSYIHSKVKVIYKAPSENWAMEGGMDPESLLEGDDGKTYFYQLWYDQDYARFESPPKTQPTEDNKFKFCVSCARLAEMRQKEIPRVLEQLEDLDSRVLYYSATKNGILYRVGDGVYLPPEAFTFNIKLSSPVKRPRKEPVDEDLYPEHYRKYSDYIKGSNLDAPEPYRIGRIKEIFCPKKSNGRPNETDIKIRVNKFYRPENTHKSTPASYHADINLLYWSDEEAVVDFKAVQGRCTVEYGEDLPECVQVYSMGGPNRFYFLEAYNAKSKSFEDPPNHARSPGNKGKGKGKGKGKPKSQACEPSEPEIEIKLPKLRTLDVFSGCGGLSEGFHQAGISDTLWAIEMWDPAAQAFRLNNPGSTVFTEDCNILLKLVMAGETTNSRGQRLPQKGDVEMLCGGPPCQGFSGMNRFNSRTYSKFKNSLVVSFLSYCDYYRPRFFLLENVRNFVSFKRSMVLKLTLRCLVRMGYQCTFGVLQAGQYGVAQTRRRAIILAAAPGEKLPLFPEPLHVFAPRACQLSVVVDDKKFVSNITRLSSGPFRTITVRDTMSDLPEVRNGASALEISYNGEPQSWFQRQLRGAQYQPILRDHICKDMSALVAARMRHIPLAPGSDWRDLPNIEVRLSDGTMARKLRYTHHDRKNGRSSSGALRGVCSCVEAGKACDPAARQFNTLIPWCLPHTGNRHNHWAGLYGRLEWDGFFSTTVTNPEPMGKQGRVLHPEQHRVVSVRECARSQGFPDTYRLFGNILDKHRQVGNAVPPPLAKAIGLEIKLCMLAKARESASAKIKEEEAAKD
row,Compound,inhibition [%]
1,COc1ccc(-c2cc(NCC3CCN(Cc4ccccc4)CC3)c3cnn(CCCN4CCCC4)c3c2)cc1,48
2,CN1CCC(Nc2nc(-c3cn[nH]c3)nc3c2ccn3CCCN2CCCC2)CC1,35
3,CN1CCC(Nc2nc(N3CCN(C)CC3)nc3c2ccn3CCCN2CCCC2)CC1,39
4,CC(C)N1CCC(Nc2nc(N3CCCCC3)nc3c2ccn3CCCN2CCCC2)CC1,13
5,CN1CCC(Nc2nc(N3CCN(C)CC3)nc3c2ccn3CCCN2CCOCC2)CC1,25
6,CN1CCC(Nc2nc(-c3ccc(C(F)(F)F)cc3)nc3c2ccn3CCCN2CCCC2)CC1,42
7,CC(C)N1CCC(Nc2nc(-c3ccccc3)nc3c2ncn3CCCN2CCCC2)CC1,7.2
8,CN1CCC(Nc2nc(N3CCOCC3)nc3c2ccn3CCCN2CCCC2)CC1,25
9,CC(C)N1CCC(Nc2nc(N3CCOCC3)nc3c2ccn3CCCN2CCCC2)CC1,6.7
10,CN1CCC(Nc2nc(N3CCCCC3)nc3c2ccn3CCCN2CCOCC2)CC1,21
11,CN1CCC(Nc2nc(N3CCCCC3)nc3c2ccn3CCCN2CCCC2)CC1,20
12,Cc1ccc(-c2cc(NC3CCN(C(C)C)CC3)c3cnn(CCCN4CCCC4)c3c2)o1,56

# System: MV4-11
# Assay: Antiproliferative activity against human MV4-11 cells assessed as inhibition of cell viability measured after 72 hrs by MTT assay
# Format: functional, cell-based
# Details: MV4-11, 72 h
row,Compound,IC50 [µM]
1,COc1ccc(-c2cc(NCC3CCN(Cc4ccccc4)CC3)c3cnn(CCCN4CCCC4)c3c2)cc1,1.44
2,CN1CCC(Nc2nc(-c3cn[nH]c3)nc3c2ccn3CCCN2CCCC2)CC1,> 100
3,CN1CCC(Nc2nc(N3CCN(C)CC3)nc3c2ccn3CCCN2CCCC2)CC1,11.1
4,CC(C)N1CCC(Nc2nc(N3CCCCC3)nc3c2ccn3CCCN2CCCC2)CC1,12.3
5,CN1CCC(Nc2nc(N3CCN(C)CC3)nc3c2ccn3CCCN2CCOCC2)CC1,23.8
6,CN1CCC(Nc2nc(-c3ccc(C(F)(F)F)cc3)nc3c2ccn3CCCN2CCCC2)CC1,1.16
7,CC(C)N1CCC(Nc2nc(-c3ccccc3)nc3c2ncn3CCCN2CCCC2)CC1,8.85
8,CN1CCC(Nc2nc(N3CCOCC3)nc3c2ccn3CCCN2CCCC2)CC1,25.9
9,CC(C)N1CCC(Nc2nc(N3CCOCC3)nc3c2ccn3CCCN2CCCC2)CC1,40.9
10,CN1CCC(Nc2nc(N3CCCCC3)nc3c2ccn3CCCN2CCOCC2)CC1,24
11,CN1CCC(Nc2nc(N3CCCCC3)nc3c2ccn3CCCN2CCCC2)CC1,9.62
12,Cc1ccc(-c2cc(NC3CCN(C(C)C)CC3)c3cnn(CCCN4CCCC4)c3c2)o1,11.9

# Molecular target: T2, Histone-lysine N-methyltransferase EHMT2 (Homo sapiens) (UniProt Q96KQ7)
# T2 sequence (whole entry): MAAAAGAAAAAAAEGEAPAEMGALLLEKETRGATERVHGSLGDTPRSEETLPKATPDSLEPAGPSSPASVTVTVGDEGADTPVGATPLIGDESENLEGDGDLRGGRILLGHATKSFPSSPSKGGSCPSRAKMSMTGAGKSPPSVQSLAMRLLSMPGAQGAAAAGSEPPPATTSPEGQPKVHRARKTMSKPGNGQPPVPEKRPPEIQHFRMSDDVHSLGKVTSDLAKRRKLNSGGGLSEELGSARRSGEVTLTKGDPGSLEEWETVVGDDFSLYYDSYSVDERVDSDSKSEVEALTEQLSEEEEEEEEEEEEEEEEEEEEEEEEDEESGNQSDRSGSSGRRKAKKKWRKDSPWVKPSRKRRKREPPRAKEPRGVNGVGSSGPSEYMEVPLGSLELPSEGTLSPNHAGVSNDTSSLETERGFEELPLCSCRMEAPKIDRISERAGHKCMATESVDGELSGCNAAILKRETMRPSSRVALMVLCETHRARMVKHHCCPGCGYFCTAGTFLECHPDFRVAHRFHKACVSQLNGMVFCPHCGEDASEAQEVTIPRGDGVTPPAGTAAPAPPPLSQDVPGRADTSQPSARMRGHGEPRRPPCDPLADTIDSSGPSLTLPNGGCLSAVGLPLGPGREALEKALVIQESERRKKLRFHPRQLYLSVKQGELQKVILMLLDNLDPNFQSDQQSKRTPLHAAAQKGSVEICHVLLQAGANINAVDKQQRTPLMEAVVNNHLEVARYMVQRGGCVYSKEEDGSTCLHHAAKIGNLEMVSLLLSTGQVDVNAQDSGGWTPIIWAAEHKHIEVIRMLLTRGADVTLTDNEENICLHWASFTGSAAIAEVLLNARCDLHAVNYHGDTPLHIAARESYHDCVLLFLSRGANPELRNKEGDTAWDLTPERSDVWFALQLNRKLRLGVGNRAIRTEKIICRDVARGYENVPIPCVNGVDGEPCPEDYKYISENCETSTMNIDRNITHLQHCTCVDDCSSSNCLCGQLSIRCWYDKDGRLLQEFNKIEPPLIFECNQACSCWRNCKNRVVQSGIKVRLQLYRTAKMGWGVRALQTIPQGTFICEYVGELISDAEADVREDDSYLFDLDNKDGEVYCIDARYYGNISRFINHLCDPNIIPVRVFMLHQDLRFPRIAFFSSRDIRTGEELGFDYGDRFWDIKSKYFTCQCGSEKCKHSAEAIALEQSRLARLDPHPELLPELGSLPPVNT
# Assay: Inhibition of G9a (unknown origin) at 5 uM preincubated for 15 mins followed by substrate and [3H-SAM] addition and measured after 60 mins by microbeta analysis relative to control
# Details: time 75.0 min
row,Compound,inhibition [%]
1,CN1CCC(Nc2nc(-c3cn[nH]c3)nc3c2ccn3CCCN2CCCC2)CC1,-2
2,CN1CCC(Nc2nc(N3CCN(C)CC3)nc3c2ccn3CCCN2CCCC2)CC1,-1.9
3,CC(C)N1CCC(Nc2nc(N3CCCCC3)nc3c2ccn3CCCN2CCCC2)CC1,6.5
4,CN1CCC(Nc2nc(N3CCN(C)CC3)nc3c2ccn3CCCN2CCOCC2)CC1,12
5,CC(C)N1CCC(Nc2nc(-c3ccccc3)nc3c2ncn3CCCN2CCCC2)CC1,6
6,CN1CCC(Nc2nc(N3CCOCC3)nc3c2ccn3CCCN2CCCC2)CC1,7.2
7,CC(C)N1CCC(Nc2nc(N3CCOCC3)nc3c2ccn3CCCN2CCCC2)CC1,-1.4
8,CN1CCC(Nc2nc(N3CCCCC3)nc3c2ccn3CCCN2CCOCC2)CC1,12
9,CN1CCC(Nc2nc(N3CCCCC3)nc3c2ccn3CCCN2CCCC2)CC1,1.9
10,Cc1ccc(-c2cc(NC3CCN(C(C)C)CC3)c3cnn(CCCN4CCCC4)c3c2)o1,12

# Molecular target: T1, DNA (cytosine-5)-methyltransferase 1
# Assay: Inhibition of DNMT1 (unknown origin) preincubated for 15 mins followed by substrate and [3H-SAM] addition and measured after 60 mins by microbeta analysis
# Details: not given
row,Compound,IC50 [µM]
1,CC(C)N1CCC(Nc2nc(-c3ccccc3)nc3c2ncn3CCCN2CCCC2)CC1,11.9

# Molecular target: T3, DNA (cytosine-5)-methyltransferase 3A (Homo sapiens, UniProt Q9Y6K1)
# Assay: Inhibition of DNMT3A (unknown origin) at 5 uM preincubated for 15 mins followed by substrate and [3H-SAM] addition and measured after 60 mins by microbeta analysis relative to control
# Details: time 75.0 min
# T3 sequence (Q9Y6K1 whole entry, looked up): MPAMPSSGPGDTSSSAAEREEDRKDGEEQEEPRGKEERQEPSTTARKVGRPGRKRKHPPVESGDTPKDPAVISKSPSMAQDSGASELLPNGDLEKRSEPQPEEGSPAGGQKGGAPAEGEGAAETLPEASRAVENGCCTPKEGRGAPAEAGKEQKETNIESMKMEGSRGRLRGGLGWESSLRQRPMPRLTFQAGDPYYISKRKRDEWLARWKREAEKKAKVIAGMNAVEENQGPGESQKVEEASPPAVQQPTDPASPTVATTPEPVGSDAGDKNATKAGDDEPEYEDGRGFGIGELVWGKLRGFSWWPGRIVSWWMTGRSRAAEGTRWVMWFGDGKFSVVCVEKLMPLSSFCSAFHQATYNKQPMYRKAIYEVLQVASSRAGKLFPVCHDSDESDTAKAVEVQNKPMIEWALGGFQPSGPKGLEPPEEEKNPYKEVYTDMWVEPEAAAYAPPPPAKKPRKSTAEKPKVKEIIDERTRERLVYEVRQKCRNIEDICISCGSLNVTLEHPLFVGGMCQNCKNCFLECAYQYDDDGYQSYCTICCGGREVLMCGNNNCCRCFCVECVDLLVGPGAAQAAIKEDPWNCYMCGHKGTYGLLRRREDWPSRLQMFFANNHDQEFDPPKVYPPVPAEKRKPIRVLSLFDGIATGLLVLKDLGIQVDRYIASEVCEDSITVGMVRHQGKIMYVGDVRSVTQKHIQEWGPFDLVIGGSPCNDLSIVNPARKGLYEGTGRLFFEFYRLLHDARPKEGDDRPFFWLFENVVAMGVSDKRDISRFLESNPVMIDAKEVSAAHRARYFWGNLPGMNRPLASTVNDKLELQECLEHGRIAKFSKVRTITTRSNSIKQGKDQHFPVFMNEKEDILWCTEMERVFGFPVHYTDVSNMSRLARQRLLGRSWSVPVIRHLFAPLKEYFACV
row,Compound,inhibition [%]
1,COc1ccc(-c2cc(NCC3CCN(Cc4ccccc4)CC3)c3cnn(CCCN4CCCC4)c3c2)cc1,24
2,CN1CCC(Nc2nc(-c3cn[nH]c3)nc3c2ccn3CCCN2CCCC2)CC1,7.2
3,CN1CCC(Nc2nc(N3CCN(C)CC3)nc3c2ccn3CCCN2CCCC2)CC1,11
4,CC(C)N1CCC(Nc2nc(N3CCCCC3)nc3c2ccn3CCCN2CCCC2)CC1,0.8
5,CN1CCC(Nc2nc(N3CCN(C)CC3)nc3c2ccn3CCCN2CCOCC2)CC1,9.5
6,CN1CCC(Nc2nc(-c3ccc(C(F)(F)F)cc3)nc3c2ccn3CCCN2CCCC2)CC1,9.7
7,CC(C)N1CCC(Nc2nc(-c3ccccc3)nc3c2ncn3CCCN2CCCC2)CC1,21
8,CN1CCC(Nc2nc(N3CCOCC3)nc3c2ccn3CCCN2CCCC2)CC1,-1.8
9,CC(C)N1CCC(Nc2nc(N3CCOCC3)nc3c2ccn3CCCN2CCCC2)CC1,2.6
10,CN1CCC(Nc2nc(N3CCCCC3)nc3c2ccn3CCCN2CCOCC2)CC1,3.7
11,CN1CCC(Nc2nc(N3CCCCC3)nc3c2ccn3CCCN2CCCC2)CC1,6.9
12,Cc1ccc(-c2cc(NC3CCN(C(C)C)CC3)c3cnn(CCCN4CCCC4)c3c2)o1,13

# Molecular target: T3, DNA (cytosine-5)-methyltransferase 3A
# Assay: Inhibition of DNMT3A (unknown origin) preincubated for 15 mins followed by substrate and [3H-SAM] addition and measured after 60 mins by microbeta analysis
# Details: not given
row,Compound,IC50 [µM]
1,CN1CCC(Nc2nc(-c3cn[nH]c3)nc3c2ccn3CCCN2CCCC2)CC1,7.13
2,CN1CCC(Nc2nc(N3CCN(C)CC3)nc3c2ccn3CCCN2CCCC2)CC1,2.8

# System: U-937
# Assay: Antiproliferative activity against human U-937 cells assessed as inhibition of cell viability measured after 72 hrs by MTT assay
# Format: functional, cell-based
# Details: U-937, 72 h
row,Compound,IC50 [µM]
1,COc1ccc(-c2cc(NCC3CCN(Cc4ccccc4)CC3)c3cnn(CCCN4CCCC4)c3c2)cc1,1.02
2,CN1CCC(Nc2nc(-c3cn[nH]c3)nc3c2ccn3CCCN2CCCC2)CC1,> 100
3,CN1CCC(Nc2nc(N3CCN(C)CC3)nc3c2ccn3CCCN2CCCC2)CC1,30.9
4,CC(C)N1CCC(Nc2nc(N3CCCCC3)nc3c2ccn3CCCN2CCCC2)CC1,14.5
5,CN1CCC(Nc2nc(N3CCN(C)CC3)nc3c2ccn3CCCN2CCOCC2)CC1,58.6
6,CN1CCC(Nc2nc(-c3ccc(C(F)(F)F)cc3)nc3c2ccn3CCCN2CCCC2)CC1,0.98
7,CC(C)N1CCC(Nc2nc(-c3ccccc3)nc3c2ncn3CCCN2CCCC2)CC1,12.4
8,CN1CCC(Nc2nc(N3CCOCC3)nc3c2ccn3CCCN2CCCC2)CC1,> 100
9,CC(C)N1CCC(Nc2nc(N3CCOCC3)nc3c2ccn3CCCN2CCCC2)CC1,> 100
10,CN1CCC(Nc2nc(N3CCCCC3)nc3c2ccn3CCCN2CCOCC2)CC1,41
11,CN1CCC(Nc2nc(N3CCCCC3)nc3c2ccn3CCCN2CCCC2)CC1,17.7
12,Cc1ccc(-c2cc(NC3CCN(C(C)C)CC3)c3cnn(CCCN4CCCC4)c3c2)o1,12.2
